Test results as given in patent publication US20250057893A1, “PHARMACEUTICAL COMPOSITION FOR PREVENTING OR TREATING CANCER OR INFLAMMATORY DISEASE” (ENTEROBIOME INC., priority 2021, published 2025).
In brackets after ≈: the same amount, converted by molar mass.

Key:
Format in all cases: cell-based
[1] = test system: Akkermansia muciniphila EB-AMDK39 strain; test: Antimicrobial susceptibility, broth microdilution MIC (CLSI), isolated strain; conditions: for MIC: Akkermansia muciniphila, EBAMDK39STRAIN, read-out: MIC, test strain EB-AMDK39, broth microdilution
[2] = test system: Bacteroides thetiotaomicron ATCC 29741; test: Antimicrobial susceptibility, broth microdilution MIC (CLSI), QC strain; set-up: MIC, QC ATCC 297415: unit not given beside the values; conditions: for MIC: Bacteroides, ATCC 29741 / ATCC 297415, read-out: MIC, QC ATCC 297415
[3] = test system: Akkermansia muciniphila ATCC BAA-835; test: Antimicrobial susceptibility, broth microdilution MIC (CLSI), type strain; conditions: for MIC: Akkermansia muciniphila, ATCCBAA835, broth microdilution, read-out: MIC, test strain ATCC BAA-835

| Compound | MIC [1] [µg/mL] | MIC [2] [µg/mL] | MIC [3] [µg/mL] | further results |
| --- | --- | --- | --- | --- |
| O=C(N[C@H](CO)[C@H](O)c1ccc([N+](=O)[O-])cc1)C(Cl)Cl [CHL, chloramphenicol] | 8 (≈ 24.8 µM) | 8 (≈ 24.8 µM) | 4 (≈ 12.4 µM) | Susceptibility category by MIC breakpoints, CHL ([1]; EB-AMDK39, CHL breakpoints): S (≤8); Susceptibility category by MIC breakpoints, CHL ([3]; ATCC BAA-835, CHL breakpoints): S (≤8) |
| CCC[C@@H]1C[C@@H](C(=O)N[C@@H]([C@H]2O[C@H](SC)[C@H](O)[C@@H](O)[C@H]2O)[C@H](C)Cl)N(C)C1 [CLI, clindamycin] | > 64 |  | ≤ 0.125 | Susceptibility category by MIC breakpoints, CLI ([1]; EB-AMDK39, CLI breakpoints): R (≥8); Susceptibility category by MIC breakpoints, CLI ([3]; ATCC BAA-835, CLI breakpoints): S (≤2) |
| CO/N=C(\C(=O)N[C@@H]1C(=O)N2C(C(=O)O)=CCS[C@H]12)c1csc(N)n1 [CTZ, ceftizoxime] | 256 (≈ 668 µM) | 16 (≈ 41.7 µM) | 2 (≈ 5.22 µM) | Susceptibility category by MIC breakpoints, CTZ ([1]; EB-AMDK39, CTZ breakpoints): R (≥128); Susceptibility category by MIC breakpoints, CTZ ([3]; ATCC BAA-835, CTZ breakpoints): S (≤32) |
| C[C@@H](O)[C@H]1C(=O)N2C(C(=O)O)=C(S[C@@H]3CN[C@H](C(=O)N(C)C)C3)[C@H](C)[C@H]12 [MEM, meropenem] | 4 (≈ 10.4 µM) | 0.5 (≈ 1.3 µM) | 1 (≈ 2.61 µM) | Susceptibility category by MIC breakpoints, MEM ([1]; EB-AMDK39, MEM breakpoints): S (≤4); Susceptibility category by MIC breakpoints, MEM ([3]; ATCC BAA-835, MEM breakpoints): S (≤4) |
| Cc1ncc([N+](=O)[O-])n1CCO [MTZ, metronidazole] | 1 (≈ 5.84 µM) | 2 (≈ 11.7 µM) | ≤ 0.25 | Susceptibility category by MIC breakpoints, MTZ ([1]; EB-AMDK39, MTZ breakpoints): S (≤8); Susceptibility category by MIC breakpoints, MTZ ([3]; ATCC BAA-835, MTZ breakpoints): S (≤8) |
| COc1c(N2C[C@@H]3CCCN[C@@H]3C2)c(F)cc2c(=O)c(C(=O)O)cn(C3CC3)c12 [MXF, moxifloxacin] | > 32 | 8 (≈ 19.9 µM) | > 32 | Susceptibility category by MIC breakpoints, MXF ([1]; EB-AMDK39, MXF breakpoints): R (≥8); Susceptibility category by MIC breakpoints, MXF ([3]; ATCC BAA-835, MXF breakpoints): R (≥8) |
| Piperacillin-tazobactam [PTZ] |  |  |  | Susceptibility category by MIC breakpoints, PTZ ([1]; EB-AMDK39, PTZ breakpoints): S (≤32/4); MIC, QC ATCC 297415 ([2]; broth microdilution, QC strain): 8/4; Susceptibility category by MIC breakpoints, PTZ ([3]; ATCC BAA-835, PTZ breakpoints): S (≤32/4) |
